Experimental data: patent US20220175820A1 (PIERRE FABRE DERMO-COSMETIQUE, priority 2019, published 2022)
Marks after values point to notes of the source that are not given here.

How the values were obtained:
Format in all cases: cell-based
[1] = system: IL-8; assay: IL-8 production by stimulated normal human epidermal keratinocytes (atopic dermatitis model, ELISA); conditions: bafilomycin 30 nM; stimulation by Poly I:C, PamC3, IL-4 and IL-13
Experimental: (§1) The study is performed on normal human epidermal keratinocytes cultured under standard conditions (37° C., 5% CO2). The culture medium is standard (keratinocyte-SFM supplemented with 0.25 ng/ml epidermal growth factor (EGF), 25 μg/ml pituitary extract and 25 μg/ml gentamycin). The test medium is the same without growth factor.
(§2) To simulate an atopic dermatitis environment, keratinocytes are preincubated for 1 hour in the medium with or without (control) the compounds to be tested, the vehicle (water) or the positive control, bafilomycin (macrolide family) at 30 nM. […] After this preincubation, keratinocytes are stimulated for 24 hours by a mixture of TLR ligands (Poly I:C and PamC3) and inflammatory cytokines (IL-4 and IL-13) added to the cells. An unstimulated control condition is also done at the same time. The cells are incubated for 24 hours.
(§3) The culture supernatants are collected, centrifuged and frozen at −80° C. TSLP and IL-8 are quantified by ELISA.
(§4) Three independent experiments are conducted. Statistical analysis is determined by one-way ANOVA followed by Dunnett's post-hoc test.

[2] = system: TSLP; assay: TSLP production by stimulated normal human epidermal keratinocytes (atopic dermatitis model, ELISA); conditions: bafilomycin 30 nM; stimulation by Poly I:C, PamC3, IL-4 and IL-13
Experimental: as §1, §2, §3, §4

[3] = system: FABP5: epidermal fatty acid binding protein; assay: RT-qPCR gene expression in normal human keratinocytes: FABP5; conditions: calcium chloride 1.5 mM, 48 h
Experimental: (§5) The effects of this compound were assessed via the RT-qPCR technique with the analysis of 12 target genes chosen for their importance in keratinocyte differentiation, antimicrobial defence and hydration. Calcium chloride (tested at 1.5 mM) is used as the reference compound (physiological agent inducing terminal epidermal differentiation). The cells are then collected for analysis of target expression (mRNA) by real-time PCR. Total RNAs were extracted with TriPure Isolation Reagent® according to the supplier's instructions (Roche Life Science, Meylan, France). They were assayed with the Bioanalyser 2100 (Agilent Technologies, Les Ulis, France). The mRNAs were reverse transcribed into complementary DNA with oligo(dT) and Transcriptor Reverse Transcriptase. PCR was performed in the LightCycler® System according to the supplier's instructions (Roche). The PCR mix used is SYBR green I. The results were analyzed with Microsoft Excel®. The relative quantity is calculated for each gene by normalizing with two reference genes, ribosomal protein L13A (RPL13A) and TATA box binding protein (TBP).

[4] = system: KLK7: type 7 kallikrein; assay: RT-qPCR gene expression in normal human keratinocytes: KLK7; conditions: calcium chloride 1.5 mM, 48 h
Experimental: as §5

[5] = system: SULT2B1: cholesterol sulfotransferase; assay: RT-qPCR gene expression in normal human keratinocytes: SULT2B1; conditions: calcium chloride 1.5 mM, 48 h
Experimental: as §5

[6] = system: DEGS2: sphingolipid C4-hydroxylase/delta-4 desaturase; assay: RT-qPCR gene expression in normal human keratinocytes: DEGS2; conditions: calcium chloride 1.5 mM, 48 h
Experimental: as §5

[7] = system: CASP14: caspase 14; assay: RT-qPCR gene expression in normal human keratinocytes: CASP14; conditions: calcium chloride 1.5 mM, 48 h
Experimental: as §5

[8] = system: CDSN : corneodesmosin; assay: RT-qPCR gene expression in normal human keratinocytes: CDSN; conditions: calcium chloride 1.5 mM, 48 h
Experimental: as §5

[9] = system: TGM1: transglutaminase 1; assay: RT-qPCR gene expression in normal human keratinocytes: TGM1; conditions: calcium chloride 1.5 mM, 48 h
Experimental: as §5

[10] = system: CLDN4: claudin 4; assay: RT-qPCR gene expression in normal human keratinocytes: CLDN4; conditions: calcium chloride 1.5 mM, 48 h
Experimental: as §5

[11] = system: DEFB4A: β-defensin 2; assay: RT-qPCR gene expression in normal human keratinocytes: DEFB4A; conditions: calcium chloride 1.5 mM, 48 h
Experimental: as §5

[12] = system: FLG: filaggrin; assay: RT-qPCR gene expression in normal human keratinocytes: FLG; conditions: calcium chloride 1.5 mM, 48 h
Experimental: as §5

Row | Structure (SMILES) | Production of IL-8 at 24 h Mean [1] [pg/mL] | TSLP production at 24 h % Inh [2] | TSLP production at 24 h Mean [2] [pg/mL] | FABP5 Mean RQ (relative quantity) [3] | KLK7 Mean RQ (relative quantity) [4] | SULT2B1 Mean RQ (relative quantity) [5] | DEGS2 Mean RQ (relative quantity) [6] | CASP14 Mean RQ (relative quantity) [7] | CDSN Mean RQ (relative quantity) [8] | TGM1 Mean RQ (relative quantity) [9] | CLDN4 Mean RQ (relative quantity) [10] | DEFB4A Mean RQ (relative quantity) [11] | FLG Mean RQ (relative quantity) [12]
1 | CO/C1=C\C(C)=C\[C@@H](C)[C@@H](O)[C@@H](C)C/C(C)=C/C=C/[C@H](OC)[C@@H]([C@@H](C)[C@@H](O)[C@H](C)[C@@]2(O)C[C@@H](O)[C@H](C)[C@@H](C(C)C)O2)OC1=O [Bafilomycin, bafilomycin, reference compound] | 26022 | 70* % | 81 |  |  |  |  |  |  |  |  |  | 
2 | [Ca+2].[Cl-].[Cl-] [Calcium chloride] |  |  |  | 6.9 | 11.3 | 14.0 | 3.0 | 1.6 | 1.8 | 9.0 | 2.5 | 118.0 | 4.5
